# Tests used:
# Assay type in all cases: cell-based
# [1] = system: primary human total T-cells; test: T-cell activation assessed by CD69 expression
# Procedure, shortened: (§1)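 Primary human T-cells (>95% CD3+, negative selection from PBMC) were pre-incubated with inhibitor (e.g. 10, 1.11, 0.123 μM; DMSO <0.1%) for 1 h at 37 °C. They were then stimulated 48 h with plate-bound OKT3 (coated at 10 μg/mL), alone or with 5 μg/mL soluble anti-CD28. Results are fold change over uninhibited, identically stimulated cells.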
# [2] = system: primary human total T-cells; test: T-cell activation assessed by cell proliferation (Cell Trace Violet)
# Procedure, shortened: as §1
# [3] = system: primary human total T-cells; test: T-cell activation assessed by cytokine secretion (GM-CSF, IFNγ, TNFα)
# Procedure, shortened: as §1
# [4] = CD3/CD28 stimulation, CD4 T-cells, read-out: % CD69+ (CD4)
# [5] = CD3/CD28 stimulation, CD8 T-cells, read-out: % CD69+ (CD8)
# [6] = CD3 alone stimulation, CD4 T-cells, read-out: % CD69+ (CD4)
# [7] = CD3 alone stimulation, CD8 T-cells, read-out: % CD69+ (CD8)
# [8] = CD3/CD28 stimulation, CD4 T-cells, read-out: % CP (cell proliferation) (CD4)
# [9] = CD3/CD28 stimulation, CD8 T-cells, read-out: % CP (cell proliferation) (CD8)
# [10] = CD3 alone stimulation, CD8 T-cells, read-out: % CP (cell proliferation) (CD8)
# [11] = CD3/CD28 stimulation, read-out: GM-CSF secretion
# [12] = CD3/CD28 stimulation, read-out: IFNγ secretion
# [13] = CD3/CD28 stimulation, read-out: TNFα secretion
# [14] = CD3 alone stimulation, read-out: GM-CSF secretion
# [15] = CD3 alone stimulation, read-out: IFNγ secretion
# [16] = CD3 alone stimulation, read-out: TNFα secretion
Structure (SMILES),"fold induction at 1.11 µM [1, 4]","fold induction at 10 µM [1, 4]","fold induction at 1.11 µM [1, 5]","fold induction at 10 µM [1, 5]","fold induction at 1.11 µM [1, 6]","fold induction at 10 µM [1, 6]","fold induction at 1.11 µM [1, 7]","fold induction at 10 µM [1, 7]","fold induction at 1.11 µM [2, 8]","fold induction at 10 µM [2, 8]","fold induction at 1.11 µM [2, 9]","fold induction at 10 µM [2, 9]","fold induction at 1.11 µM [2, 10]","fold induction at 10 µM [2, 10]","fold induction at 1.11 µM [3, 11]","fold induction at 1.11 µM [3, 12]","fold induction at 1.11 µM [3, 13]","fold induction at 10 µM [3, 11]","fold induction at 10 µM [3, 12]","fold induction at 10 µM [3, 13]",also measured
"Cn1cnnc1CC1(c2cccc(N3Cc4c(cc(CN5CC(F)C5)cc4C(F)(F)F)C3=O)c2)COC1 [Compound 415, 6-((3-fluoroazetidin-1-yl)methyl)-2-(3-(3-((4-methyl-4H-1,2,4-triazol-3-yl)methyl)oxetan-3-yl)phenyl)-4-(trifluoromethyl)isoindolin-1-one]",1.2 to 1.4,1.4 to 1.6,1.2 to 1.4,1.2 to 1.4,> 1.6,> 1.6,1.2 to 1.4,1.4 to 1.6,> 4,> 4,3.01 to 4,> 4,> 4,> 4,2.01 to 4,3.01 to 4,2.01 to 4,> 4,> 4,2.01 to 4,"fold induction at 1.11 µM [3, 14]: 2.01 to 4; fold induction at 1.11 µM [3, 15]: 2.01 to 3; fold induction at 1.11 µM [3, 16]: 1.51 to 2; fold induction at 10 µM [3, 14]: > 4; fold induction at 10 µM [3, 15]: > 4; fold induction at 10 µM [3, 16]: 1.51 to 2"
"Cn1cnnc1CC1(c2cccc(N3Cc4c(cc(CN5CC[C@H](C#N)C5)cc4C(F)(F)F)C3=O)c2)COC1 [Compound 422, (S)-1-((2-(3-(3-((4-methyl-4H-1,2,4-triazol-3-yl)methyl)oxetan-3-yl)phenyl)-3-oxo-7-(trifluoromethyl)isoindolin-5-yl)methyl)pyrrolidine-3-carbonitrile]",1.2 to 1.4,1.4 to 1.6,1.2 to 1.4,1.2 to 1.4,> 1.6,> 1.6,1.2 to 1.4,1.4 to 1.6,> 4,> 4,2.01 to 3,3.01 to 4,3.01 to 4,> 4,2.01 to 4,3.01 to 4,2.01 to 4,> 4,> 4,2.01 to 4,"fold induction at 1.11 µM [3, 14]: 2.01 to 4; fold induction at 1.11 µM [3, 15]: < 2; fold induction at 1.11 µM [3, 16]: ≤ 1.5; fold induction at 10 µM [3, 14]: 2.01 to 4; fold induction at 10 µM [3, 15]: 3.01 to 4; fold induction at 10 µM [3, 16]: 1.51 to 2"
"Cn1cnnc1C(F)(F)[C@](C)(F)c1cccc(N2Cc3c(cc(C(=O)N4CC[C@H](O)C4)cc3C(F)(F)F)C2=O)c1 [Compound 438, 6-((S)-3-hydroxypyrrolidine-1-carbonyl)-2-(3-((R)-1,1,2-trifluoro-1-(4-methyl-4H-1,2,4-triazol-3-yl)propan-2-yl)phenyl)-4-(trifluoromethyl)isoindolin-1-one]",1.2 to 1.4,1.4 to 1.6,≤ 1.2,1.2 to 1.4,1.2 to 1.4,> 1.6,≤ 1.2,1.2 to 1.4,3.01 to 4,> 4,< 2,3.01 to 4,< 2,> 4,1.51 to 2,< 2,≤ 1.5,2.01 to 4,2.01 to 3,2.01 to 4,"fold induction at 1.11 µM [3, 14]: ≤ 1.5; fold induction at 1.11 µM [3, 15]: < 2; fold induction at 1.11 µM [3, 16]: 2.01 to 4; fold induction at 10 µM [3, 14]: 2.01 to 4; fold induction at 10 µM [3, 15]: 2.01 to 3; fold induction at 10 µM [3, 16]: 1.51 to 2"
Cn1cnnc1C(F)(F)[C@](C)(F)c1cccc(N2Cc3c(cc(CN4CC[C@@H](F)C4)cc3C(F)(F)F)C2=O)c1 [Compound 450],1.2 to 1.4,1.4 to 1.6,1.2 to 1.4,1.2 to 1.4,1.4 to 1.6,> 1.6,1.2 to 1.4,1.4 to 1.6,> 4,> 4,2.01 to 3,> 4,> 4,> 4,2.01 to 4,2.01 to 3,2.01 to 4,> 4,> 4,2.01 to 4,"fold induction at 1.11 µM [3, 14]: 1.51 to 2; fold induction at 1.11 µM [3, 15]: < 2; fold induction at 1.11 µM [3, 16]: 1.51 to 2; fold induction at 10 µM [3, 14]: 2.01 to 4; fold induction at 10 µM [3, 15]: < 2; fold induction at 10 µM [3, 16]: 1.51 to 2"
"COC1CN(Cc2cc3c(c(C(F)(F)F)c2)CN(c2cccc([C@@](C)(F)C(F)(F)c4nncn4C)c2)C3=O)C1 [Compound 452, (R)-6-((3-methoxyazetidin-1-yl)methyl)-2-(3-(1,1,2-trifluoro-1-(4-methyl-4H-1,2,4-triazol-3-yl)propan-2-yl)phenyl)-4-(trifluoromethyl)isoindolin-1-one]",1.2 to 1.4,1.4 to 1.6,1.2 to 1.4,1.2 to 1.4,1.4 to 1.6,> 1.6,1.2 to 1.4,1.4 to 1.6,> 4,> 4,3.01 to 4,> 4,3.01 to 4,> 4,2.01 to 4,< 2,1.51 to 2,2.01 to 4,2.01 to 3,2.01 to 4,"fold induction at 1.11 µM [3, 14]: 1.51 to 2; fold induction at 1.11 µM [3, 15]: 3.01 to 4; fold induction at 1.11 µM [3, 16]: ≤ 1.5; fold induction at 10 µM [3, 14]: 2.01 to 4; fold induction at 10 µM [3, 15]: 3.01 to 4; fold induction at 10 µM [3, 16]: 1.51 to 2"
